In patent publication US10233191B2, “Fused piperidine amides as modulators of ion channels” (Vertex Pharmaceuticals Incorporated, priority 2013, dated 2019):
pIC50: −log10 of the molar value.

target: T1, NaV 1.7 (Homo sapiens, UniProt Q15858); test: E-VIPR optical membrane potential assay with electrical stimulation; format: cell-based; conditions: active against one or more sodium channels; assay/subtype not specified in Table 4; read-out: IC50 Binned Activity Data
T1 construct: expressed in transfected cells; host or cells: HEK cells
Text: E-VIPR Optical Membrane Potential Assay Method with Electrical Stimulation
Sodium channels are voltage-dependent proteins that can be activated by inducing membrane voltage changes by applying electric fields. The electrical stimulation instrument and methods of use are described in Ion Channel Assay Methods PCT/US01/21652, herein incorporated by reference and are referred to as E-VIPR. The instrument comprises a microtiter plate handler, an optical system for exciting the coumarin dye while simultaneously recording the coumarin and oxonol emissions, a waveform generator, a current- or voltage-controlled amplifier, and a device for inserting electrodes in well. Under integrated computer control, this instrument passes user-programmed electrical stimulus protocols to cells within the wells of the microtiter plate.
24 hours before the assay on E-VIPR, HEK cells expressing human NaV subtype, like NaV 1.7, are seeded in 384-well poly-lysine coated plates at 15,000-20,000 cells per well. Other subtypes are performed in an analogous mode in a cell line expressing the NaV of interest. HEK cells are grown in media (exact composition is specific to each cell type and NaV subtype) supplemented with 10% FBS (Fetal Bovine Serum, qualified; GibcoBRL #16140-071) and 1% Pen-Strep (Penicillin-Streptomycin; GibcoBRL #15140-122). Cells are grown in vented cap flasks, in 90% humidity and 10% CO2, to 100% confluence. They are usually split by trypsinization 1:10 or 1:20, depending on scheduling needs, and grown for 2-3 days before the next split.
• 100 mg/mL Pluronic F-127 (Sigma #P2443), in dry DMSO • Compound Plates: 384-well round bottom plate, e.g. Corning 384-well Polypropylene Round Bottom #3656 • Cell Plates: 384-well tissue culture treated plate, e.g. Greiner #781091-1B • 10 mM DiSBAC6(3) (Aurora #00-100-010) in dry DMSO • 10 mM CC2-DMPE (Aurora #00-100-008) in dry DMSO • 200 mM ABSC1 in H2O
Bath1 buffer. Glucose 10 mM (1.8 g/L), Magnesium Chloride (Anhydrous), 1 mM (0.095 g/L), Calcium Chloride, 2 mM (0.222 g/L), HEPES 10 mM (2.38 g/L), Potassium Chloride, 4.5 mM (0.335 g/L), Sodium Chloride 160 mM (9.35 g/L).
Hexyl Dye Solution: Bath1 Buffer+0.5% β-cyclodextrin (make this prior to use, Sigma #C4767), 8 μM CC2-DMPE+2.5 μM DiSBAC6(3). To make the solution Add volume of 10% Pluronic F127 stock equal to volumes of CC2-DMPE+DiSBAC6(3). The order of preparation is first mix Pluronic and CC2-DMPE, then add DiSBAC6(3) while vortexing, then add Bath1+β-Cyclodextrin.
1) Pre-spot compounds (in neat DMSO) into compound plates. Vehicle control (neat DMSO), the positive control (20 mM DMSO stock tetracaine, 125 μM final in assay) and test compounds are added to each well at 160× desired final concentration in neat DMSO. Final compound plate volume will be 80 μL (80-fold intermediate dilution from 1 μL DMSO spot; 160-fold final dilution after transfer to cell plate). Final DMSO concentration for all wells in assay is 0.625%.
2) Prepare Hexyl Dye Solution.
3) Prepare cell plates. On the day of the assay, medium is aspirated and cells are washed three times with 100 μL of Bath1 Solution, maintaining 25 μL residual volume in each well.
4) Dispense 25 μL per well of Hexyl Dye Solution into cell plates. Incubate for 20-35 minutes at room temp or ambient conditions.
5) Dispense 80 μL per well of Bath1 into compound plates. Acid Yellow-17 (1 mM) is added and Potassium Chloride can be altered from 4.5 to 20 mM depending on the NaV subtype and assay sensitivity.
6) Wash cell plates three times with 100 μL per well of Bath1, leaving 25 μL of residual volume. Then transfer 25 uL per well from Compound Plates to Cell Plates. Incubate for 20-35 minutes at room temp/ambient condition
7) Read Plate on E-VIPR. Use the current-controlled amplifier to deliver stimulation wave pulses for typically 9 seconds and a scan rate of 400 Hz. A pre-stimulus recording is performed for 0.5 seconds to obtain the un-stimulated intensities baseline. […]

T1 sequence (Q15858 whole entry): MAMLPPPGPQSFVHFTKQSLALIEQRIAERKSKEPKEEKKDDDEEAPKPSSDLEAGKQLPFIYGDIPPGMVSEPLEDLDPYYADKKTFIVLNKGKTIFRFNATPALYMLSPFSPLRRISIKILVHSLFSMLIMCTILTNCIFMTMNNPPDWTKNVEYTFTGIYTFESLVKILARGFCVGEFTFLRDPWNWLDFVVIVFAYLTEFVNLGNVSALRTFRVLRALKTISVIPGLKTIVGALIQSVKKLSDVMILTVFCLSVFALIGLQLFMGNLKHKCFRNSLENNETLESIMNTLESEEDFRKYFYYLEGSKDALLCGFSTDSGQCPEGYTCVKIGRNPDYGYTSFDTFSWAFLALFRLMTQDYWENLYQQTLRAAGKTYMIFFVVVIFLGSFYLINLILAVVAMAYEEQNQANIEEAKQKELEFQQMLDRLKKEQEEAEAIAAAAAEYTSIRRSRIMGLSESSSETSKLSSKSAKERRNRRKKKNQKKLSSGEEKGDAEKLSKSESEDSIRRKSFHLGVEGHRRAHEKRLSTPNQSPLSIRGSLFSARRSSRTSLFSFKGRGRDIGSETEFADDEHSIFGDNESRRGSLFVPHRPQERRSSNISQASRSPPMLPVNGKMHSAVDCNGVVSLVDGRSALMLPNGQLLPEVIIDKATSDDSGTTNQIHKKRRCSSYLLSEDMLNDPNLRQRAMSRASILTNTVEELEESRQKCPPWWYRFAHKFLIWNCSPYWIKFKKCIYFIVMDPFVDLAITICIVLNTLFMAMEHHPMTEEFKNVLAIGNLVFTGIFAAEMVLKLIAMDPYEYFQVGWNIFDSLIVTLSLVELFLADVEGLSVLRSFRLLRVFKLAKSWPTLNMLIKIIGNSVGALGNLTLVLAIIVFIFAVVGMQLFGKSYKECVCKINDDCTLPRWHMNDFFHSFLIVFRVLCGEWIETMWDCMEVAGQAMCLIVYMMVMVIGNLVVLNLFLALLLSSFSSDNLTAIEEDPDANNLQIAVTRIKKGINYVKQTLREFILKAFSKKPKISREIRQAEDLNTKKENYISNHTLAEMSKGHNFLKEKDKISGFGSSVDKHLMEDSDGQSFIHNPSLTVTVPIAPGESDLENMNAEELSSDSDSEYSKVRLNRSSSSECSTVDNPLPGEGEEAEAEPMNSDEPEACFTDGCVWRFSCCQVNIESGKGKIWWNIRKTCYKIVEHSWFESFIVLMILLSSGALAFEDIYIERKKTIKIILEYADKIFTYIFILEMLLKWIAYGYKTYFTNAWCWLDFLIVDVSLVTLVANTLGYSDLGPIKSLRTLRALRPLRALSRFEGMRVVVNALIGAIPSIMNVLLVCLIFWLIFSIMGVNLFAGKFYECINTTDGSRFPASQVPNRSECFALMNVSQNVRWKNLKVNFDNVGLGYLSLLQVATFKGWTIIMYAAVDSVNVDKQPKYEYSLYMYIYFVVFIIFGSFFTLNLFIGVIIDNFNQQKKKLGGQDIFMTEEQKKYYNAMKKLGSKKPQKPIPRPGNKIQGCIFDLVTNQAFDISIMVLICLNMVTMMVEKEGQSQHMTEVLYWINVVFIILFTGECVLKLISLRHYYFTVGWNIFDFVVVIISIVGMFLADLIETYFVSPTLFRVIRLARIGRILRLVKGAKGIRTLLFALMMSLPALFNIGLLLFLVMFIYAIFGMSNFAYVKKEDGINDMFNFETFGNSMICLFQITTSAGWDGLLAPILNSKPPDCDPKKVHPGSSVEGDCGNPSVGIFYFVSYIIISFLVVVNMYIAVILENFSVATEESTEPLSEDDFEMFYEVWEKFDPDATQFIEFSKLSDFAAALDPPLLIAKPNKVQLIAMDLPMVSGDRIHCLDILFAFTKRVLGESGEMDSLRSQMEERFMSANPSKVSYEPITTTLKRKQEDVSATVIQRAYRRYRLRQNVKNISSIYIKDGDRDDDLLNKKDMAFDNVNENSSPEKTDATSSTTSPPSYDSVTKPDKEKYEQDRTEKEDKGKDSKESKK

Row | SMILES | pIC50
1 | O=C(c1ccc(S(=O)(=O)C(F)F)cc1)N1CC[C@]2(c3cccc(F)c3)OCOC2C1 (stereo partly shown) [Compound 261] | < 5.30
2 | CC(C)(O)Cc1ccc(C(=O)N2CCC3(c4ccccc4)CC3C2)cc1F (stereo not shown) [Compound 37] | ≥ 5.70
3 | O=C(c1ccc(OCCOC(F)(F)F)c(Cl)c1)N1CC[C@@]2(c3cccc(F)c3)OCOC2C1 (stereo partly shown) [Compound 216] | ≥ 5.70
4 | Cc1cc(C(=O)N2CC[C@@]3(c4ccc(F)cc4)OCOC3C2)ccc1OCC(C)(C)F (stereo partly shown) [Compound 109] | ≥ 5.70
5 | COc1cc(C(=O)N2CCC3(c4ccccc4)OCC3C2)ccc1OCCOC(F)(F)F (stereo not shown) [Compound 55] | ≥ 5.70
6 | COc1nc(C(=O)N2CC[C@]3(c4cccc(C#N)c4)OCOC3C2)ccc1OCCOC(F)(F)F (stereo partly shown) [Compound 292] | ≥ 5.70
7 | CC(C)(O)COc1ccc(C(=O)N2CC[C@@]3(c4nccs4)OCOC3C2)cc1Cl (stereo partly shown) [Compound 17] | 5.30 to 5.70
8 | Cc1cc(C(=O)N2CC[C@]3(c4cccc(F)c4)OCOC3C2)ccc1OCC(C)(C)F (stereo partly shown) [Compound 256] | ≥ 5.70
9 | CC(C)(O)c1ccc(C(=O)N2CCC3(c4ccccc4)CC3C2)cc1F (stereo not shown) [Compound 57] | < 5.30
10 | COc1cc(C(=O)N2CC[C@@]3(c4ccccn4)COC[C@H]3C2)ccc1OCCOC(F)(F)F [Compound 64] | ≥ 5.70
11 | COc1cc(C(=O)N2CC[C@]3(c4cccc(Cl)c4)OCOC3C2)ccc1OC(C)C(F)(F)F (stereo partly shown) [Compound 170] | ≥ 5.70
12 | COc1nc(C(=O)N2CC[C@]3(c4cccc(F)c4)OCOC3C2)ccc1OCC1(C(F)(F)F)CC1 (stereo partly shown) [Compound 268] | ≥ 5.70
13 | COc1ccnc([C@]23CCN(C(=O)c4ccc(OCC(F)(F)C(F)F)c(OC)c4)CC2OCO3)c1 (stereo partly shown) [Compound 3] | ≥ 5.70
14 | COc1cc(C(=O)N2CC[C@]3(c4cc(C(F)(F)F)ccn4)OCOC3C2)ccc1OCC(F)(F)C(F)F (stereo partly shown) [Compound 197] | ≥ 5.70
15 | COc1nc(C(=O)N2CC[C@]3(c4cccc(F)c4)OCOC3C2)ccc1OCC1CC2(C1)CC(F)(F)C2 (stereo partly shown) [Compound 223] | ≥ 5.70
16 | Cc1cc(C(=O)N2CCC3(c4ccccc4)OCC3C2)ccc1OC(C)C (stereo not shown) [Compound 13] | < 5.30
17 | COc1nc(C(=O)N2CC[C@]3(c4ncccc4F)OCOC3C2)ccc1OCCOC(F)(F)F (stereo partly shown) [Compound 96] | ≥ 5.70
18 | [2H]C1([2H])OC2CN(C(=O)c3ccc(OCCOC(F)(F)F)c(OC)c3)CC[C@]2(c2cccc(F)c2)O1 (stereo partly shown) [Compound 181] | ≥ 5.70
19 | COc1cc(C(=O)N2CC[C@]3(c4ccccc4)OCOC3C2)ccc1OCC1CC(F)(F)C1 (stereo partly shown) [Compound 139] | ≥ 5.70
20 | COc1nc(C(=O)N2CC[C@]3(c4cccc(F)c4)OCOC3C2)ccc1OCC1CC(F)(F)C1 (stereo partly shown) [Compound 180] | ≥ 5.70
21 | COc1cc(C(=O)N2CC[C@]3(c4cccc(Cl)c4)OCOC3C2)ccc1OCCC(F)(F)F (stereo partly shown) [Compound 131] | ≥ 5.70
22 | COc1cc(C(=O)N2CC[C@]3(c4cccc(F)c4)OCOC3C2)ccc1OCCC1CC1(F)F (stereo partly shown) [Compound 252] | ≥ 5.70
23 | COc1nc(C(=O)N2CC[C@]3(c4csc(C)n4)OCOC3C2)ccc1OCCOC(F)(F)F (stereo partly shown) [Compound 88] | ≥ 5.70
24 | COc1cc(C(=O)N2CC[C@]3(c4cccc(F)c4F)OCOC3C2)ccc1OCCOC(F)(F)F (stereo partly shown) [Compound 186] | ≥ 5.70
25 | O=C(c1ccc(OCC2CC2(F)F)c(Cl)c1)N1CC[C@]2(c3ccccn3)OCOC2C1 (stereo partly shown) [Compound 135] | ≥ 5.70
26 | COc1ccnc([C@]23CCN(C(=O)c4ccc(OCCOC(F)(F)F)c(Cl)c4)CC2OCO3)c1 (stereo partly shown) [Compound 245] | ≥ 5.70

Row | SMILES | pIC50
27 | [2H]C1([2H])OC2CN(C(=O)c3ccc(OCCOC(F)(F)F)c(Cl)c3)CC[C@]2(c2ccccn2)O1 (stereo partly shown) [Compound 304] | ≥ 5.70
28 | [2H]C1([2H])OC2CN(C(=O)c3ccc(OCCOC(F)(F)F)c(OC)n3)CC[C@]2(c2ccccc2)O1 (stereo partly shown) [Compound 159] | ≥ 5.70
29 | COc1nc(C(=O)N2CC[C@]3(c4cccc(F)c4)OCOC3C2)ccc1OCC(F)(F)C1CC1 (stereo partly shown) [Compound 227] | ≥ 5.70
30 | O=C(c1ccc2c(c1)OCC(COC(F)(F)F)O2)N1CC[C@@]2(c3ccccc3)OCOC2C1 (stereo partly shown) [Compound 54] | ≥ 5.70
31 | COc1cccnc1[C@]12CCN(C(=O)c3ccc(OCCOC(F)(F)F)c(Cl)c3)CC1OCO2 (stereo partly shown) [Compound 94] | ≥ 5.70
32 | Cc1cc(C(=O)N2CC[C@@]3(c4nccs4)OCOC3C2)ccc1OCC(F)(F)F (stereo partly shown) [Compound 63] | ≥ 5.70
33 | O=C(c1ccc(O)c(Cl)c1)N1CC[C@]2(c3ccccn3)OCOC2C1 (stereo partly shown) [Compound 9] | < 5.30
34 | COc1cc(C(=O)N2CC[C@]3(c4cc(C(F)(F)F)ccn4)OCOC3C2)ccc1OCC1(C(F)(F)F)CC1 (stereo partly shown) [Compound 198] | ≥ 5.70
35 | COc1ccnc(C23CCN(C(=O)c4ccc(OCCOC(F)(F)F)c(OC)c4)CC2OCO3)c1 (stereo not shown) [Compound 112] | ≥ 5.70
36 | Cc1cc(C(=O)N2CCC3(c4ccccc4)CC3C2)ccc1OC(C)C (stereo not shown) [Compound 79] | ≥ 5.70
37 | Cc1cc(C(=O)N2CC[C@@]3(c4ccccc4)OCOC3C2)ccc1OCC(C)(C)O (stereo partly shown) [Compound 73] | ≥ 5.70
38 | COc1cc(C(=O)N2CC[C@]3(c4cc(C(F)(F)F)ccn4)OCOC3C2)ccc1OCCOC(F)(F)F (stereo partly shown) [Compound 179] | ≥ 5.70
39 | COc1cc(C(=O)N2CC[C@]3(c4cccc(OCC(C)C)n4)OCOC3C2)ccc1OCCOC(F)(F)F (stereo partly shown) [Compound 314] | ≥ 5.70
40 | O=C(c1ccc(OCCOC(F)(F)F)c(Cl)c1)N1CC[C@]2(c3cccc(F)c3)OCOC2C1 (stereo partly shown) [Compound 255] | ≥ 5.70
41 | COc1cc(C(=O)N2CCC3(c4ccccn4)OCCC3C2)ccc1OCCOC(F)(F)F (stereo not shown) [Compound 66] | ≥ 5.70
42 | COc1cc(C(=O)N2CCC3(c4ccccc4)CC3C2)ccc1OCC(C)(C)F (stereo not shown) [Compound 158] | ≥ 5.70
43 | COc1nc(C(=O)N2CC[C@]3(c4nccs4)OCOC3C2)ccc1OCCOC(F)(F)F (stereo partly shown) [Compound 111] | ≥ 5.70
44 | COc1cc(C(=O)N2CC[C@@]3(c4ccccn4)COC3C2)ccc1OCC1CC(F)(F)C1 (stereo partly shown) [Compound 210] | 5.30 to 5.70
45 | O=C(c1cccc2cccnc12)N1CCC2(c3ccccc3)CC2C1 (stereo not shown) [Compound 143] | ≥ 5.70
46 | COc1cc(C(=O)N2CC[C@@]3(c4cccc(F)c4)OCOC3C2)ccc1OCC1CC(F)(F)C1 (stereo partly shown) [Compound 215] | ≥ 5.70
47 | COc1cc(C(=O)N2CC[C@]3(c4ccccn4)OC(C)(C)OC3C2)ccc1OCCOC(F)(F)F (stereo partly shown) [Compound 310] | ≥ 5.70
48 | O=C(c1cccc2cccnc12)N1CC[C@]2(c3ccccc3)OCOC2C1 (stereo partly shown) [Compound 76] | ≥ 5.70
49 | O=C(c1ccc(OCC2CC(F)(F)C2)c(C(F)(F)F)c1)N1CC[C@]2(c3ccccn3)OCOC2C1 (stereo partly shown) [Compound 312] | ≥ 5.70
50 | CCOc1nc(C(=O)N2CC[C@@]3(c4nccs4)OCOC3C2)ccc1OCCOC(F)(F)F (stereo partly shown) [Compound 137] | ≥ 5.70
51 | O=C(c1ccc(OCCOC(F)(F)F)c(Cl)c1)N1CCC2(c3ccc(F)cc3)CC2C1 (stereo not shown) [Compound 301] | ≥ 5.70
52 | COc1nc(C(=O)N2CC[C@]3(c4cccc(F)c4)OCOC3C2)ccc1OCC1CC2C(C1)C2(F)F (stereo partly shown) [Compound 237] | ≥ 5.70
